Measured values as given in patent publication US9062041B2 (Bayer Intellectual Property GmbH, priority 2011, dated 2015).

Tested on: female cynomolgus monkeys (Macaca Fascicularis)
Experiment: In-vivo action on fertility in non-human primates (mating study)
Conditions: 6 months, 10 mg/kg (Example 17 once daily, Example 56 twice daily)
Protocol: 4.4 In-Vivo Action on Fertility in Non-Human Primates (Cynomolgus):
In order to study the effect of substances on fertility, mating studies can be performed in monkeys (Jensen et al. Contraception 81 (2010) 165-171). For this, the test substances are administered to female cynomolgus monkeys (Macaca Fascicularis) which are being kept in groups, then the animals are mated with a male animal. Matings are checked for by sperm detection in daily vaginal smears. Pregnancies resulting therefrom are identified by hormone determinations and ultrasound examinations. Through the changes in the serum oestradiol concentrations during the cycle, (rise before the midcycle LH peak), the fertile phase within a cycle of the individual animals can be determined Matings in this fertile period are described as “timed matings” (matings in the fertile phase). Apart from the absolute number of pregnancies occurring, the effect on the fertility can also be expressed as pregnancies per “timed matings”.
To test the action of EP2 receptor antagonists on fertility in monkeys, Examples 17 and 56 according to the invention were administered over 6 months, dissolved in 0.5 ml castor oil. Example 17 was administered once daily at a dosage of 10 mg/kg (n=10 animals), while Example 56 was administered twice daily at a dosage of 10 mg/kg (n=9 animals). Only the vehicle was administered to a control group (n=10 animals). In the first month of the treatment, no male animal was placed with the female animals. After this, female and male animals were kept together over 5 months, with detection of pregnancies and cycle monitoring.

SMILES: COCCNC(=O)c1ccc2nn(CC3CCN(C(=O)c4ccc(Oc5ccc(C(F)(F)F)cc5)cc4)CC3)cc2c1C [Example 17, N-(2-methoxyethyl)-4-methyl-2-[(1-{4-[4-(trifluoromethyl)-phenoxy]benzoyl}-piperidin-4-yl)-methyl]-2H-indazol-5-carboxamide]
- % Pregnancies/"timed mating": 6%
- Pregnancies: 3
